Results: US20030104946A1, “Herbicidal mixture comprising a benzoyl derivative, a fertilizer containing nitrogen and an adjuvant” (priority 2001, published 2003)

Tests used:
ZEAMA (Maize) = experiment: Weed control postemergence in maize under field conditions, outdoor pot trial (Example 4); format: in vivo; details: Tables 5 and 6
Source text: Seeds of various crop and weed species were planted in a sandy-loamy soil and placed in a climate chamber in a greenhouse under good growth conditions. Four weeks after sowing, the plants were sprayed with a tank mixture containing the formulated test compound at a spray rate of 300 l/ha of spray solution. The plants were visually assessed fourteen days after application, and the percentage control of the plants is shown in Tables 1 and 2.
Using the method of Example 1 but in an outdoor pot trial in the field there were obtained the following results shown in Tables 5, 6 and 7. […]

[1] = tested on: ORYSP (Transplanted Paddy Rice); experiment: Effect on weeds in rice by water application (Example 3); format: in vivo; details: mixtures of Table 4
Source text: Seeds of the various weed species and rice were planted in a sandy-loamy soil in a greenhouse under good growth conditions. Three weeks after sowing the tank mixture containing the formulated test compound was applied to the plants submerged in the paddy water. The plants were visually assessed three weeks after application, and the percentage control of the plants is-shown in Table 4 in comparison with untreated controls.

CCS(=O)(=O)c1ccc(C(=O)C2C(=O)CCCC2=O)c(Cl)c1C1=NOC(CC#N)C1 (centres unmarked) [B2, 2-[2-chloro-3-(5-cyanomethylisoxazolin-3-yl)-4-ethylsulfonylbenzoyl]cyclohexane-1,3-dione]
maize damage (ZEAMA (Maize)): No maize damage was observed | rice damage [1]: No rice damage was observed
